In patent US9212182B2, “Bicyclic sulfonamide compounds as sodium channel inhibitors” (AMGEN INC., priority 2013, dated 2015):

These compounds were tested against Nav 1.7 (Homo sapiens (Human), UniProt Q15858) (assay: in-vitro Nav 1.7 PX (IC50)). Details: not given.
Format: cell-based

Chain of Nav 1.7 (Q15858 whole entry): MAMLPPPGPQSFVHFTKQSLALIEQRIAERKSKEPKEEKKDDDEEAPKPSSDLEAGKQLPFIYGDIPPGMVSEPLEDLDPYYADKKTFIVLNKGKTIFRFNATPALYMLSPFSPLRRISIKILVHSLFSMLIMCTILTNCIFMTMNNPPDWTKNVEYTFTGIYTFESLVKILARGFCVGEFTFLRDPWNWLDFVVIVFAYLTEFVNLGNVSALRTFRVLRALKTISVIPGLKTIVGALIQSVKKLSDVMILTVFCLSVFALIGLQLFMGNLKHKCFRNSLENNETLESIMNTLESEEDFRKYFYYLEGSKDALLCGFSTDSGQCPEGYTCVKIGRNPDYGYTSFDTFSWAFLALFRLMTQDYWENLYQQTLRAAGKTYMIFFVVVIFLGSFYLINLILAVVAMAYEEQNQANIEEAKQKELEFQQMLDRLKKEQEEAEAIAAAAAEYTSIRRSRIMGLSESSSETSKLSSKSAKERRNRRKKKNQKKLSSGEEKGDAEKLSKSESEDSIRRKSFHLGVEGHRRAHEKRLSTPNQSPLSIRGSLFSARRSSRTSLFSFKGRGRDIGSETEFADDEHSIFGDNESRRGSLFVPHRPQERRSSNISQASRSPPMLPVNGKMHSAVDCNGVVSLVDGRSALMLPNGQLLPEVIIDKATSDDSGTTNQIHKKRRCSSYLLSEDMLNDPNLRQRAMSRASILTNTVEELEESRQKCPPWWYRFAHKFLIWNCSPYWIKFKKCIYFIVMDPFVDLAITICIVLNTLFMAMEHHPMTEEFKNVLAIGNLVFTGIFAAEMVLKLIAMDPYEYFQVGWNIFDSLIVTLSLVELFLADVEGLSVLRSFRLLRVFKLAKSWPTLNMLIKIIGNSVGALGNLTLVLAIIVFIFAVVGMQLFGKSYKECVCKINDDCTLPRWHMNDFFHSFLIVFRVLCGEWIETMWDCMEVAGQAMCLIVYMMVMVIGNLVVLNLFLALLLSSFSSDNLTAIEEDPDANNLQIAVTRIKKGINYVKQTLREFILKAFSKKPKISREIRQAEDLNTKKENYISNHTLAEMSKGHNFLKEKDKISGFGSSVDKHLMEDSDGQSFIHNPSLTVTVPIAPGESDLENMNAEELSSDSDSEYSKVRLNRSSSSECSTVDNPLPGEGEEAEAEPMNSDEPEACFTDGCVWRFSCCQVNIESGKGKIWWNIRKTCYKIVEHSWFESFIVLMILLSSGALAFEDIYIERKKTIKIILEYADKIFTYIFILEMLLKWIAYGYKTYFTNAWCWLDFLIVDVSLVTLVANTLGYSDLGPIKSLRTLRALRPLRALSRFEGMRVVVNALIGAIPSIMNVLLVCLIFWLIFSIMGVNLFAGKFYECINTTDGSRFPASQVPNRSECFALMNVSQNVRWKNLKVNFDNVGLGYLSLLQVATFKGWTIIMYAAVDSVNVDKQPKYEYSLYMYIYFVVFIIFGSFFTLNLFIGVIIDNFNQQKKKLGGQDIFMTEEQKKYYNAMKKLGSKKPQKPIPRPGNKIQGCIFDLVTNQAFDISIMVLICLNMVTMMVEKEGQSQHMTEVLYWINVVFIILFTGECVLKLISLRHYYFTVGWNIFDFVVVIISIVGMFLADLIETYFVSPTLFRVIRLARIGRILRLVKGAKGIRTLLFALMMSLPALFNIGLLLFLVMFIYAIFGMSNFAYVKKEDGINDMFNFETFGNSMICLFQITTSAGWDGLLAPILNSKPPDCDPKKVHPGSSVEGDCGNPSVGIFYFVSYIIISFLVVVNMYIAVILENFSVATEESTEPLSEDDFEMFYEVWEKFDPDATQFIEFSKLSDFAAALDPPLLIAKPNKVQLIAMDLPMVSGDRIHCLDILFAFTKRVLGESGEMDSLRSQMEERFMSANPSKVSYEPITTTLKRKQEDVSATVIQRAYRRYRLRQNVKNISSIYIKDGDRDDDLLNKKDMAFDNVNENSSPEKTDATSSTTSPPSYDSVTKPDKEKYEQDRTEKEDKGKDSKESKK

IC50 [nM]	Structure (SMILES)
10100	COc1ccccc1-n1c(=O)ccc2cc(S(=O)(=O)Nc3ccon3)ccc21 [Example 1154, N-(isoxazol-3-yl)-1-(2-methoxyphenyl)-2-oxo-1,2-dihydroquinoline-6-sulfonamide]
20100	COc1cc(-c2cc(F)cnc2OC)c(C)cc1-n1c(=O)ccc2cc(S(=O)(=O)Nc3ccon3)ccc21 (atropisomer, axis not shown; (M)) [Example 425, (M)-1-(4-(5-fluoro-2-methoxy-3-pyridinyl)-2-methoxy-5-methylphenyl)-N-3-isoxazolyl-2-oxo-1,2-dihydro-6-quinolinesulfonamide]
141	COc1cc(-c2cccc(Cl)c2)cc(F)c1-n1c(=O)ccc2cc(S(=O)(=O)Nc3ccon3)ccc21 (atropisomer, axis not shown; (P)) [Example 320, (P)-1-(3′-chloro-3-fluoro-5-methoxy-4-biphenylyl)-N-3-isoxazolyl-2-oxo-1,2-dihydro-6-quinolinesulfonamide]
1840	COc1cc(-c2cc(F)cc(Cl)c2)c(C#N)cc1-n1c(=O)ccc2cc(S(=O)(=O)Nc3ccon3)ccc21 (atropisomer, axis not shown; (M)) [Example 434, (M)-1-(3′-chloro-2-cyano-5′-fluoro-5-methoxy-4-biphenylyl)-N-3-isoxazolyl-2-oxo-1,2-dihydro-6-quinolinesulfonamide]
106	COc1cc(-c2ccc(F)cc2)c(F)cc1-n1c(=O)cnc2cc(S(=O)(=O)Nc3ccon3)ccc21 [Example 1141, 1-(2,4′-difluoro-5-methoxy-4-biphenylyl)-N-3-isoxazolyl-2-oxo-1,2-dihydro-6-quinoxalinesulfonamide]
40	COc1cc(-c2ccc(C)c(F)c2)ccc1-n1c(=O)ccc2cc(S(=O)(=O)Nc3ccon3)ccc21 (atropisomer, axis not shown; (P)) [Example 576, (P)-1-(3′-fluoro-3-methoxy-4′-methyl-4-biphenylyl)-N-3-isoxazolyl-2-oxo-1,2-dihydro-6-quinolinesulfonamide]

Second part, the compound before the results:

Structure (SMILES)	IC50 [nM]
COc1cc(-c2cc(F)cc(Cl)c2)ccc1-n1c(=O)ccc2cc(S(=O)(=O)Nc3ccon3)ccc21 (atropisomer, axis not shown; (P)) [Example 430, (P)-1-(3′-chloro-5′-fluoro-3-methoxy-4-biphenylyl)-N-3-isoxazolyl-2-oxo-1,2-dihydro-6-quinolinesulfonamide]	12
COc1cc(-c2cc(F)cnc2OC)c(C)cc1-n1c(=O)ccc2cc(S(=O)(=O)Nc3ccon3)ccc21 (atropisomer, axis not shown; (P)) [Example 426, (P)-1-(4-(5-fluoro-2-methoxy-3-pyridinyl)-2-methoxy-5-methylphenyl)-N-3-isoxazolyl-2-oxo-1,2-dihydro-6-quinolinesulfonamide]	63

Same assay, conditions: in-vitro Nav 1.7 PX data

IC50 [nM]	Structure (SMILES)
178	COc1ccc(-c2ccc(F)cc2F)cc1-n1c(=O)ccc2cc(S(=O)(=O)Nc3ccon3)ccc21 [Example 837, 1-(2′,4′-difluoro-4-methoxy-3-biphenylyl)-N-3-isoxazolyl-2-oxo-1,2-dihydro-6-quinolinesulfonamide]
28	COc1cc(-c2cccc(C(F)(F)F)c2)c(F)cc1-n1c(=O)ccc2cc(S(=O)(=O)Nc3ncco3)ccc21 [Example 806, 1-(2-fluoro-5-methoxy-3′-(trifluoromethyl)-4-biphenylyl)-N-1,3-oxazol-2-yl-2-oxo-1,2-dihydro-6-quinolinesulfonamide]
108	COc1cc(-c2cccc(C)c2)ccc1-n1c(=O)ccc2cc(S(=O)(=O)Nc3cccnn3)ccc21 [Example 1120, 1-(3-methoxy-3′-methyl-4-biphenylyl)-2-oxo-N-3-pyridazinyl-1,2-dihydro-6-quinolinesulfonamide]
18	COc1cc(-c2cccc(C(F)(F)F)c2)c(F)cc1-n1c(=O)ccc2cc(S(=O)(=O)Nc3cccnn3)ccc21 [Example 820, 1-(2-fluoro-5-methoxy-3′-(trifluoromethyl)-4-biphenylyl)-2-oxo-N-3-pyridazinyl-1,2-dihydro-6-quinolinesulfonamide]
23	COc1ccc(-c2ccc(C(F)(F)F)cc2)cc1-n1c(=O)ccc2cc(S(=O)(=O)Nc3ccon3)ccc21 [Example 843, N-3-isoxazolyl-1-(4-methoxy-4′-(trifluoromethyl)-3-biphenylyl)-2-oxo-1,2-dihydro-6-quinolinesulfonamide]

More lines, now with the values behind:

Structure (SMILES)	IC50 [nM]
COc1cc(-c2cc(F)cc(C(F)(F)F)c2)ccc1-n1c(=O)ccc2cc(S(=O)(=O)Nc3ccnc(C)n3)ccc21 [Example 1100, 1-(3′-fluoro-3-methoxy-5′-(trifluoromethyl)-4-biphenylyl)-N-(2-methyl-4-pyrimidinyl)-2-oxo-1,2-dihydro-6-quinolinesiilfonamide]	37
COc1cc(-c2cccnc2C)c(F)cc1-n1c(=O)ccc2cc(S(=O)(=O)Nc3ccon3)ccc21 [Example 737, 1-(5-fluoro-2-methoxy-4-(2-methyl-3-pyridinyl)phenyl)-N-3-isoxazolyl-2-oxo-1,2-dihydro-6-quinolinesulfonamide]	1250
COc1cc(Cl)c(-c2cccc(F)c2)cc1-n1c(=O)ccc2cc(S(=O)(=O)Nc3ccon3)ccc21 (atropisomer, axis not shown; (M)) [Example 609, (M)-1-(6-chloro-3′-fluoro-4-methoxy-3-biphenylyl)-N-3-isoxazolyl-2-oxo-1,2-dihydro-6-quinolinesulfonamide]	10100
COc1ccc(-c2cccc(Cl)c2F)cc1-n1c(=O)ccc2cc(S(=O)(=O)Nc3ccon3)ccc21 [Example 887, 1-(3′-chloro-2′-fluoro-4-methoxy-3-biphenylyl)-N-3-isoxazolyl-2-oxo-1,2-dihydro-6-quinolinesulfonamide]	30
COc1cc(-c2cc(Cl)cnc2OC)c(F)cc1-n1c(=O)ccc2cc(S(=O)(=O)Nc3ccnc(C)n3)ccc21 [Example 778, 1-(4-(5-chloro-2-methoxy-3-pyridinyl)-5-fluoro-2-methoxyphenyl)-N-(2-methyl-4-pyrimidinyl)-2-oxo-1,2-dihydro-6-quinolinesulfonamide]	111
COc1cc(-c2cc(Cl)cc(Cl)c2)ccc1-n1c(=O)ccc2cc(S(=O)(=O)Nc3ccon3)ccc21 [Example 1023, 1-(3′,5′-dichloro-3-methoxy-4-biphenylyl)-N-3-isoxazolyl-2-oxo-1,2-dihydro-6-quinolinesulfonamide]	9
COc1nc(-c2cc(F)cc(Cl)c2)c(Cl)cc1-n1c(=O)ccc2cc(S(=O)(=O)Nc3ccon3)ccc21 [Example 1071, 1-(5-chloro-6-(3-chloro-5-fluorophenyl)-2-methoxy-3-pyridinyl)-N-3-isoxazolyl-2-oxo-1,2-dihydro-6-quinolinesulfonamide]	348
COc1nc(NC2CCCC2)c(Cl)cc1-n1c(=O)ccc2cc(S(=O)(=O)Nc3ccon3)ccc21 [Example 648, 1-(5-chloro-6-(cyclopentylamino)-2-methoxy-3-pyridinyl)-N-3-isoxazolyl-2-oxo-1,2-dihydro-6-quinolinesulfonamide]	984
COc1cc(-c2cccc(C3CC3)c2)ccc1-n1c(=O)ccc2cc(S(=O)(=O)Nc3ccon3)ccc21 [Example 788, 1-(3′-cyclopropyl-3-methoxy-4-biphenylyl)-N-3-isoxazolyl-2-oxo-1,2-dihydro-6-quinolinesulfonamide]	6
COc1cc(-c2ccc(OC(F)(F)F)cc2)c(F)cc1-n1c(=O)ccc2cc(S(=O)(=O)Nc3ccon3)ccc21 [Example 760, 1-(2-fluoro-5-methoxy-4′-(trifluoromethoxy)-4-biphenylyl)-N-3-isoxazolyl-2-oxo-1,2-dihydro-6-quinolinesulfonamide]	15
COc1ccc(-c2ccccc2F)cc1-n1c(=O)ccc2cc(S(=O)(=O)Nc3ccon3)ccc21 [Example 836, 1-(2′-fluoro-4-methoxy-3-biphenylyl)-N-3-isoxazolyl-2-oxo-1,2-dihydro-6-quinolinesulfonamide]	120
COc1cc(-c2cccc3c2OCC3)ccc1-n1c(=O)ccc2cc(S(=O)(=O)Nc3ccon3)ccc21 [Example 789, 1-(4-(2,3-dihydro-1-benzofuran-7-yl)-2-methoxyphenyl)-N-3-isoxazolyl-2-oxo-1,2-dihydro-6-quinolinesulfonamide]	89
COc1cc(-c2cc(OC)c(-n3c(=O)ccc4cc(S(=O)(=O)Nc5ncc(F)cn5)ccc43)cc2F)ccc1F [Example 1010, 1-(2,4′-difluoro-3′,5-dimethoxy-4-biphenylyl)-N-(5-fluoro-2-pyrimidinyl)-2-oxo-1,2-dihydro-6-quinolinesulfonamide]	74

Same assay, conditions: in-vitro Nav 1.7 PX data (PatchXpress)

IC50 [nM]	Structure (SMILES)
149	COc1cc(-c2ccc(-n3c(=O)ccc4cc(S(=O)(=O)Nc5ncco5)ccc43)c(OC)c2)ccc1Cl [Example 1039, 1-(4′-chloro-3,3′-dimethoxy-4-biphenylyl)-N-1,3-oxazol-2-yl-2-oxo-1,2-dihydro-6-quinolinesulfonamide]
20	COc1ccc(C)cc1-c1ccc(-n2c(=O)ccc3cc(S(=O)(=O)Nc4ccon4)ccc32)c(OC)c1 [Example 1036, 1-(2′,3-dimethoxy-5′-methyl-4-biphenylyl)-N-3-isoxazolyl-2-oxo-1,2-dihydro-6-quinolinesulfonamide]

Same assay, conditions: in-vitro PatchXpress (PX)

IC50 [nM]	Structure (SMILES)
18	COc1cc(-c2cc(F)cc(F)c2F)c(F)cc1-n1c(=O)ccc2cc(S(=O)(=O)Nc3ccon3)ccc21 (atropisomer, axis not shown; (P)) [Example 514, (P)—N-3-isoxazolyl-2-oxo-1-(2,2′,3′,5′-tetrafluoro-5-methoxy-4-biphenylyl)-1,2-dihydro-6-quinolinesulfonamide]
8	COc1cc(-c2ccc(Cl)c(F)c2)c(F)cc1-n1c(=O)ccc2cc(S(=O)(=O)Nc3ccon3)ccc21 (atropisomer, axis not shown; (M)) [Example 504, (M)-1-(4′-chloro-2,3′-difluoro-5-methoxy-4-biphenylyl)-N-3-isoxazolyl-2-oxo-1,2-dihydro-6-quinolinesulfonamide]
9	COc1cc(-c2cccc(C)c2)c(F)cc1-n1c(=O)ccc2cc(S(=O)(=O)Nc3ccon3)ccc21 (atropisomer, axis not shown; (P)) [Example 522, (P)-1-(2-fluoro-5-methoxy-3′-methyl-4-biphenylyl)-N-3-isoxazolyl-2-oxo-1,2-dihydro-6-quinolinesulfonamide]
